Reference: patent US9346782B2, “Alkyl linked quinolinyl modulators of RORγt” (Janssen Pharmaceutica NV, priority 2013, dated 2016)
pIC50: −log10 of the molar value.

Experiments:
human RORγt LBD = human RORγt LBD (Homo sapiens (Human), UniProt P51449); assay: RORγt Reporter Assay; format: cell-based; settings: for pIC50 / RORγt reporter Assay, % inhibition @ 6 μM: HEK293T cells; for inhibition at 6 µM: HEK-293T, read-out: RORγt reporter Assay, % inhibition @ 6 μM, HEK293T cells, 6 μM
Description: A reporter assay was used to test functional activity of RORγt modulatory compounds on transcriptional activation driven by the RORγt LBD. Cells used in the assay were co-transfected with two constructs. The first construct, pBIND-RORγt LBD, contained the wild type human RORγt LBD fused to the DNA binding domain of the GAL4 protein. The second construct, pGL4.31 (Promega Cat no. C935A), contained multiple GAL4 responsive DNA elements upstream of firefly luciferase. […] The mutant construct was called pBIND-RORγt-AF2.
The pBIND vector contains the GAL4 DNA Binding Domain (GAL4 DBD) and the renilla luciferase gene under control of the SV40 promoter. Renilla luciferase expression serves as a control for transfection efficiency and cell viability.
The reporter assay was performed by transiently transfecting HEK293T cells with 5 μg of pBIND-RORγt LBD or pBIND-RORγt LBD-AF2 and 5 μg pGL4.31 (Promega Cat no. C935A) using Fugene 6 (Invitrogen Cat no. E2691) at a 1:6 ratio of DNA:Fugene 6 in a T-75 flask in which cells were at least 80% confluent. Twenty four hours after bulk transfection, cells were plated into 96-well plates at 50,000 cells/well in phenol-red free DMEM containing 5% Lipid Reduced FCS and Pen/Strep. Six hours after plating, cells were treated with compounds for 24 hours. Media was removed and cells were lysed with 50 μL 1× Glo Lysis Buffer (Promega). Dual Glo Luciferase Reagent (50 μL/well) was then added and firefly luciferase luminescence was read on an Envision after a ten minute incubation. Finally, Stop and Glo reagent (50 μL/well) was added and renilla luciferase luminescence was read on an Envision after a ten minute incubation. To calculate the effect of compounds on RORγt activity, the ratio of firefly to renilla luciferase was determined and plotted against compound concentration. Agonist compounds increase RORγt-driven luciferase expression, and antagonist or inverse agonist compounds decrease luciferase expression.

[1] = test system: IL-17 production by CD4 T cells; assay: Human Th17 Assay; format: cell-based; settings: 3 days
Description: The human Th17 assay tests the effect of RORγt modulatory compounds on IL-17 production by CD4 T cells under conditions which favor Th17 differentiation. Total CD4^+ T cells were isolated from the peripheral blood mononuclear cells (PBMC) of healthy donors using a CD4^+ T cell isolation kit II, following the manufacturer's instructions (Miltenyi Biotec). Cells were resuspended in a medium of RPMI-1640 supplemented with 10% fetal bovine serum, penicillin, streptomycin, glutamate, and β-mercaptoethanol and were added to 96-well plates at 1.5×10^5 per 100 μL per well. 50 μL of compound at titrated concentrations in DMSO were added into each well at final DMSO concentration at 0.2%. Cells were incubated for 1 hour, then 50 μL of Th17 cell differentiation medium was added to each well. The final concentrations of antibodies and cytokines (R&D Systems) in differentiation medium were: 3×10^6/mL anti-CD3/CD28 beads (prepared using human T cell activation/expansion kit, Miltenyi Biotec), 10 μg/mL anti-IL4, 10 μg/mL anti-IFNγ, 10 ng/mL IL1β, 10 ng/mL IL23, 50 ng/mL IL6, 3 ng/mL TGFβ and 20 U/mL IL2. Cells were cultured at 37° C. and 5% CO2 for 3 days. Supernatants were collected and the accumulated IL-17 in culture was measured by using MULTI-SPOT® Cytokine Plate following manufacture's instruction (Meso Scale Discovery). The plate was read using Sector Imager 6000, and IL-17 concentration was extrapolated from the standard curve. The IC50s were determined by GraphPad.

human RORγt LBD, sequence (P51449 258-518): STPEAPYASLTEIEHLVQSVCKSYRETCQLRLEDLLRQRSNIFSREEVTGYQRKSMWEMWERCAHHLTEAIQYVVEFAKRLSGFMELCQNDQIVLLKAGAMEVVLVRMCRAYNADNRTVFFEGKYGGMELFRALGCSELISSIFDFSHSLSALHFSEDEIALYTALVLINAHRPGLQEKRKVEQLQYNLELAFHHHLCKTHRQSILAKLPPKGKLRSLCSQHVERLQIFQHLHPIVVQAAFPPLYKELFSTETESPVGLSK

SMILES: C#CC(O)(c1ccc2nc(OC)c(Cc3ccc(C(F)(F)F)cc3)c(Cl)c2c1)c1cnc(C)n1C (single isomer, unassigned) [Example 14b, 1-(4-Chloro-2-methoxy-3-(4-(trifluoromethyl)benzyl)quinolin-6-yl)-1-(1,2-dimethyl-1H-imidazol-5-yl)prop-2-yn-1-ol]
- pIC50 (human RORγt LBD): 7.18
- inhibition at 6 µM (human RORγt LBD): 84%
- pIC50 ([1]; Homo sapiens, CD4+ T, 72 h): 6.72

SMILES: COc1nc2ccc(C(C)(O)c3cnnn3C)cc2c(Cl)c1Cc1ccc(C(F)(F)F)cc1 (single isomer, unassigned) [Example 11c, 1-(4-Chloro-2-methoxy-3-(4-(trifluoromethyl)benzyl)quinolin-6-yl)-1-(1-methyl-1H-1,2,3-triazol-5-yl)ethanol]
- pIC50 (human RORγt LBD): 7.82
- RORγt reporter Assay, % inhibition @ 6 μM (human RORγt LBD): 99%
- pIC50 [1]: 7.24

SMILES: C#CC(O)(c1ccc2nc(OC)c(Cc3ccc(C(F)(F)F)cc3)c(Cl)c2c1)C1CN(C(C)=O)C1 (single isomer, unassigned) [Example 7c, 1-(3-(1-(4-chloro-2-methoxy-3-(4-(trifluoromethyl)benzyl)quinolin-6-yl)-1-hydroxyprop-2-yn-1-yl)azetidin-1-yl)ethanone]
- pIC50 (human RORγt LBD): 7.01
- RORγt reporter Assay, % inhibition @ 6 μM (human RORγt LBD): 94%
- pIC50 ([1]; Homo sapiens, CD4+ T, 72 h): 6.49

SMILES: COc1nc2ccc(C(C)(O)c3oc(C)nc3C)cc2c(Cl)c1Cc1ccc(C(F)(F)F)cc1 (single isomer, unassigned) [Example 10b, 1-(4-Chloro-2-methoxy-3-(4-(trifluoromethyl)benzyl)quinolin-6-yl)-1-(2,4-dimethyloxazol-5-yl)ethanol]
- pIC50 (human RORγt LBD): 6.59
- RORγt reporter Assay, % inhibition @ 6 μM (human RORγt LBD): 96%
- pIC50 ([1]; Homo sapiens, CD4+ T, 72 h): 6.19

SMILES: COc1nc2ccc(C(C)(O)c3cncn3C)cc2c(Cl)c1Cc1ccc(C(F)(F)F)cc1 (single isomer, unassigned) [Example 9c, 1-(4-Chloro-2-methoxy-3-(4-(trifluoromethyl)benzyl)quinolin-6-yl)-1-(1-methyl-1H-imidazol-5-yl)ethanol]
- pIC50 (human RORγt LBD): 6.74
- RORγt reporter Assay, % inhibition @ 6 μM (human RORγt LBD): 98%
- pIC50 ([1]; Homo sapiens, CD4+ T, 72 h): 6.55

SMILES: COc1nc2ccc(C(C)(O)c3ccc(C)nc3C)cc2c(Cl)c1Cc1ccc(C(F)(F)F)cc1 (single isomer, unassigned) [Example 13c, 1-(4-Chloro-2-methoxy-3-(4-(trifluoromethyl)benzyl)quinolin-6-yl)-1-(2,6-dimethylpyridin-3-yl)ethanol]
- pIC50 (human RORγt LBD): 7.34
- RORγt reporter Assay, % inhibition @ 6 μM (human RORγt LBD): 100%
- pIC50 [1]: 7.22

SMILES: COc1nc2ccc(C(C)(O)c3cnc(C)n3C)cc2c(Cl)c1Cc1ccc(C(F)(F)F)cc1 (single isomer, unassigned) [Example 12c, 1-(4-Chloro-2-methoxy-3-(4-(trifluoromethyl)benzyl)quinolin-6-yl)-1-(1,2-dimethyl-1H-imidazol-5-yl)ethanol]
- pIC50 (human RORγt LBD): 7.39
- RORγt reporter Assay, % inhibition @ 6 μM (human RORγt LBD): 102%
- pIC50 [1]: 7.10

SMILES: COc1nc2ccc(C(C)(O)c3cnnn3C)cc2c(Cl)c1Cc1ccc(C(F)(F)F)cc1 (single isomer, unassigned) [Example 11b, 1-(4-Chloro-2-methoxy-3-(4-(trifluoromethyl)benzyl)quinolin-6-yl)-1-(1-methyl-1H-1,2,3-triazol-5-yl)ethanol]
- pIC50 (human RORγt LBD): 6.68
- inhibition at 6 µM (human RORγt LBD): 98%
- pIC50 [1]: 6.06
